Source: ChEMBL document CHEMBL1697781, “Assessment of the health effects of chemicals in humans: II. Construction of an adverse effects database for QSAR modeling” (Curr Drug Discov Technol, 2004)

What was measured:
Conditions in all cases: human; call rule not given here
Hepatotoxicity [1] = assay: FDA HLAED, liver enzyme composite activity
Hepatotoxicity [2] = assay: FDA HLAED, alkaline phosphatase increase
Hepatotoxicity [3] = assay: FDA HLAED, serum glutamic oxaloacetic transaminase (SGOT) increase
Hepatotoxicity [4] = assay: FDA HLAED, serum glutamic pyruvic transaminase (SGPT) increase
Hepatotoxicity [5] = assay: FDA HLAED, lactate dehydrogenase (LDH) increase
Hepatotoxicity [6] = assay: FDA HLAED, gamma-glutamyl transferase (GGT) increase
Wherever GGT Increase - Index Value is given: reference of the scale not given here.
Wherever LDH Increase - Index Value is given: reference of the scale not given here.

Row | Structure (SMILES) | Composite Activity - Active (Hepatotoxicity [1]) | Composite Activity - Marginal (Hepatotoxicity [1]) | Composite Activity - Score (Hepatotoxicity [1]) | Alkaline Phosphatase Increase - Activity Score (Hepatotoxicity [2]) | Alkaline Phosphatase Increase - Index Value (Hepatotoxicity [2]) | Alkaline Phosphatase Increase - Number of Reports (Hepatotoxicity [2]) | SGOT Increase - Activity Score (Hepatotoxicity [3]) | SGOT Increase - Index Value (Hepatotoxicity [3]) | SGOT Increase - Number of Reports (Hepatotoxicity [3]) | SGPT Increase - Activity Score (Hepatotoxicity [4]) | SGPT Increase - Index Value (Hepatotoxicity [4]) | SGPT Increase - Number of Reports (Hepatotoxicity [4]) | LDH Increase - Activity Score (Hepatotoxicity [5]) | LDH Increase - Index Value (Hepatotoxicity [5]) | LDH Increase - Number of Reports (Hepatotoxicity [5]) | GGT Increase - Activity Score (Hepatotoxicity [6]) | GGT Increase - Index Value (Hepatotoxicity [6]) | GGT Increase - Number of Reports (Hepatotoxicity [6])
1 | Nc1nc(Cl)nc2c1ncn2[C@H]1C[C@H](O)[C@@H](CO)O1 [CLADRIBINE] | 0 | 0 | Inactive | Inactive | 16.2 | < 4 | Inactive | 16.2 | < 4 | Inactive | 16.2 | < 4 | Inactive | 0 | < 4 | Inactive | 8.1 | < 4
2 | CC[C@H]1OC(=O)[C@H](C)[C@@H](O[C@H]2C[C@@](C)(OC)[C@@H](O)[C@H](C)O2)[C@H](C)[C@@H](O[C@@H]2O[C@H](C)C[C@H](N(C)C)[C@H]2O)[C@](C)(OC)C[C@@H](C)C(=O)[C@H](C)[C@@H](O)[C@]1(C)O [CLARITHROMYCIN] | 0 | 3 | Inactive | Marginally Active | 3.1 | >= 4 | Marginally Active | 3.8 | >= 4 | Marginally Active | 3.3 | >= 4 | Inactive | 1.4 | >= 4 | Inactive | 1.5 | >= 4
3 | C[C@H]1C[C@H]2[C@@H]3CCC4=CC(=O)C=C[C@]4(C)[C@@]3(F)[C@@H](O)C[C@]2(C)[C@@]1(O)C(=O)CCl [CLOBETASOL] | 0 | 0 | Inactive | Inactive | 0 | < 4 | Inactive | 0 | < 4 | Inactive | 0 | < 4 | Inactive | 0 | < 4 | Inactive | 0 | < 4
4 | CC(C)/N=c1\cc2n(-c3ccc(Cl)cc3)c3ccccc3nc-2cc1Nc1ccc(Cl)cc1 [CLOFAZIMINE] | 4 | 0 | Active | Active | 76.9 | < 4 | Active | 76.9 | < 4 | Active | 102.6 | >= 4 | Inactive | 25.6 | < 4 | Active | 51.3 | < 4
5 | CN(C)CCCN1c2ccccc2CCc2ccc(Cl)cc21 [CLOMIPRAMINE] | 0 | 0 | Inactive | Inactive | 0 | < 4 | Inactive | 0 | < 4 | Inactive | 0 | < 4 | Inactive | 0 | < 4 | Inactive | 0 | < 4
6 | CN1CCN(C2=Nc3cc(Cl)ccc3Nc3ccccc32)CC1 [CLOZAPINE] | 5 | 0 | Active | Active | 34.2 | >= 4 | Active | 45.1 | >= 4 | Active | 42.9 | >= 4 | Active | 16.8 | >= 4 | Active | 11.4 | >= 4
7 | CC1(C)S[C@@H]2[C@H](NC(=O)C3(N)CCCCC3)C(=O)N2[C@H]1C(=O)O [CYCLACILLIN] | 0 | 0 | Inactive | Inactive | 0 | < 4 | Inactive | 0 | < 4 | Inactive | 0 | < 4 | Inactive | 0 | < 4 | Inactive | 0 | < 4
8 | Cc1ccccc1N1CCN(CCc2nnc3n2CCCC3)CC1 [DAPIPRAZOLE] | 0 | 0 | Inactive | Inactive | 0 | < 4 | Inactive | 0 | < 4 | Inactive | 0 | < 4 | Inactive | 0 | < 4 | Inactive | 0 | < 4
